Molecular target: p38a activated, mitogen-activated protein kinase-activated protein kinase 2 (MAPKAP-K2 or MK2) enzyme (Homo sapiens (Human), UniProt P49137)
Experiment: MK2 Omnia continuous-read kinase assay for compound potency
Format: biochemical
Details: [MK-2]=0.4 nM, [ATP]=10 μM, [ST3-Sox]=10 μM; room temperature
Method in brief: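 Continuous Sox-peptide fluorescence read (ex360/em485) every 71 s over 2 h at room temperature. Reactions: 10 μM each of ATP (at apparent Km) and S/T3-Sox, 0.4 nM p38a-activated MK2, pH 7.5 Tris/MgCl2 buffer. Initial rates yield % inhibition and IC50; single-exponential kobs values yield apparent kinact/KI.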

Sequence of p38a activated, mitogen-activated protein kinase-activated protein kinase 2 (MAPKAP-K2 or MK2) enzyme (P49137 whole entry): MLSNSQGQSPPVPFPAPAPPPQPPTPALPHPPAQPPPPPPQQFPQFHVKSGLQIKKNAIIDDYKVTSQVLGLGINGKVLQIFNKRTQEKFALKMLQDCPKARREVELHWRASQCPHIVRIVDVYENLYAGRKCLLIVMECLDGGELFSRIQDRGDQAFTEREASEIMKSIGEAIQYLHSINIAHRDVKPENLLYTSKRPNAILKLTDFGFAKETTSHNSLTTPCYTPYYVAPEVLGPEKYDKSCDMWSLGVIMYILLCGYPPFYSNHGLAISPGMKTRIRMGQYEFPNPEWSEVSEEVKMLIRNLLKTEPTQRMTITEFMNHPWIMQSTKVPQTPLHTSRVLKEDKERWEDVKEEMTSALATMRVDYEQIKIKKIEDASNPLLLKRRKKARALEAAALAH

IC50 [µM] | Molecule
0.005 | C#Cc1ncc(F)c(-c2ccc3c(ccc4sc5c(c43)NC[C@@H](C)NC5=O)n2)n1 [Example I-1, (R)-3-(2-ethynyl-5-fluoropyrimidin-4-yl)-10-methyl-9,10,11,12-tetrahydro-8H-[1,4]diazepino[5′,6′:4,5]thieno[3,2-f]quinolin-8-one]
0.021 | C=Cc1cncc(-c2ccc3c(ccc4sc5c(c43)NC[C@@H](C)NC5=O)n2)c1 [Example I-82, (R)-10-methyl-3-(5-vinylpyridin-3-yl)-9,10,11,12-tetrahydro-8H-[1,4]diazepino[5′,6′:4,5]thieno[3,2-f]quinolin-8-one]
0.022 | C#Cc1cc(-c2ccc3c(ccc4sc5c(c43)NC[C@@H](C)NC5=O)n2)cc(C2CCN(C)CC2)n1 [Example I-107, (R)-3-(2-ethynyl-6-(1-methylpiperidin-4-yl)pyridin-4-yl)-10-methyl-9,10,11,12-tetrahydro-8H-[1,4]diazepino[5′,6′:4,5]thieno[3,2-f]quinolin-8-one]
0.026 | C=Cc1ncn(-c2ccc3c(ccc4sc5c(c43)NC[C@@H](C)NC5=O)n2)n1 [Example I-207, (R)-10-methyl-3-(3-vinyl-1H-1,2,4-triazol-1-yl)-9,10,11,12-tetrahydro-8H-[1,4]diazepino[5′,6′:4,5]thieno[3,2-f]quinolin-8-one]
0.981 | C[C@@H]1CNc2c(sc3ccc4nc(-c5cc(Cl)nnc5OCCN5CCCC5)ccc4c23)C(=O)N1 [Example I-119, (R)-3-(6-chloro-3-(2-(pyrrolidin-1-yl)ethoxy)pyridazin-4-yl)-10-methyl-9,10,11,12-tetrahydro-8H-[1,4]diazepino[5′,6′:4,5]thieno[3,2-f]quinolin-8-one]
0.014 | C=Cc1ncc(-c2ccc3c(ccc4sc5c(c43)NC[C@@H](C)NC5=O)n2)[nH]1 [Example I-150, (R)-10-methyl-3-(2-vinyl-1H-imidazol-5-yl)-9,10,11,12-tetrahydro-8H-[1,4]diazepino[5′,6′:4,5]thieno[3,2-f]quinolin-8-one]
0.095 | C=Cc1csc(-c2ccc3c(ccc4sc5c(c43)NC[C@@H](C)NC5=O)n2)n1 [Example I-149, (R)-10-methyl-3-(4-vinylthiazol-2-yl)-9,10,11,12-tetrahydro-8H-[1,4]diazepino[5′,6′:4,5]thieno[3,2-f]quinolin-8-one]
0.023 | C=Cc1cc(-c2ccc3c(ccc4sc5c(c43)NC[C@@H](C)NC5=O)n2)cc(N2CCOCC2)n1 [Example I-156, (R)-10-methyl-3-(2-morpholino-6-vinylpyridin-4-yl)-9,10,11,12-tetrahydro-8H-[1,4]diazepino[5′,6′:4,5]thieno[3,2-f]quinolin-8-one]
0.199 | C#Cc1ncc(C)c(-c2ccc3c(ccc4sc5c(c43)NC[C@@H](C)NC5=O)n2)n1 [Example I-41, (R)-3-(2-ethynyl-5-methylpyrimidin-4-yl)-10-methyl-9,10,11,12-tetrahydro-8H-[1,4]diazepino[5′,6′:4,5]thieno[3,2-f]quinolin-8-one]
0.01 | C=C(C)c1cc(-c2ccc3c(ccc4sc5c(c43)NC[C@@H](C)NC5=O)n2)nc(COCC)n1 [Example I-37, (R)-3-(2-(ethoxymethyl)-6-(prop-1-en-2-yl)pyrimidin-4-yl)-10-methyl-9,10,11,12-tetrahydro-8H-[1,4]diazepino[5′,6′:4,5]thieno[3,2-f]quinolin-8-one]
0.075 | C#Cc1cc(-c2ccc3c(ccc4sc5c(c43)NC[C@@H](C)NC5=O)n2)cc(Cl)n1 [Example I-73, (R)-3-(2-chloro-6-ethynylpyridin-4-yl)-10-methyl-9,10,11,12-tetrahydro-8H-[1,4]diazepino[5′,6′:4,5]thieno[3,2-f]quinolin-8-one]
0.58 | C[C@@H]1CNc2c(sc3ccc4nc(-n5c(Br)nc(Cl)c5Cl)ccc4c23)C(=O)N1 [Example I-250, (R)-3-(2-bromo-4,5-dichloro-1H-imidazol-1-yl)-10-methyl-9,10,11,12-tetrahydro-8H-[1,4]diazepino[5′,6′:4,5]thieno[3,2-f]quinolin-8-one]
0.47 | C[C@@H]1CNc2c(sc3ccc4nc(-c5nc(Cl)ncc5CO)ccc4c23)C(=O)N1 [Example I-75, (R)-3-(2-chloro-5-(hydroxymethyl)pyrimidin-4-yl)-10-methyl-9,10,11,12-tetrahydro-8H-[1,4]diazepino[5′,6′:4,5]thieno[3,2-f]quinolin-8-one]
0.245 | C=Cc1ncc(OC)c(-c2ccc3c(ccc4sc5c(c43)NC[C@@H](C)NC5=O)n2)n1 [Example I-32, (R)-3-(5-methoxy-2-vinylpyrimidin-4-yl)-10-methyl-9,10,11,12-tetrahydro-8H-[1,4]diazepino[5′,6′:4,5]thieno[3,2-f]quinolin-8-one]
0.01 | C[C@@H]1CNc2c(sc3ccc4nc(-c5cc(Cl)nc(COC6CCN(C)CC6)n5)ccc4c23)C(=O)N1 [Example I-15, (R)-3-(6-chloro-2-(((1-methylpiperidin-4-yl)oxy)methyl)pyrimidin-4-yl)-10-methyl-9,10,11,12-tetrahydro-8H-[1,4]diazepino[5′,6′:4,5]thieno[3,2-f]quinolin-8-one]
0.07 | C#Cc1cc(-c2ccc3c(ccc4sc5c(c43)NC[C@@H](C)NC5=O)n2)cc(N2CCNCC2)n1 [Example I-176, (R)-3-(2-ethynyl-6-(piperazin-1-yl)pyridin-4-yl)-10-methyl-9,10,11,12-tetrahydro-8H-[1,4]diazepino[5′,6′:4,5]thieno[3,2-f]quinolin-8-one]
1 | Cc1cnc(CC#N)cc1-c1ccc2c(ccc3sc4c(c32)NC[C@@H](C)NC4=O)n1 [Example I-267, (R)-2-(5-methyl-4-(10-methyl-8-oxo-9,10,11,12-tetrahydro-8H-[1,4]diazepino[5′,6′:4,5]thieno[3,2-f]quinolin-3-yl)pyridin-2-yl)acetonitrile]
0.107 | C=Cc1cc(-c2ccc3c(ccc4sc5c(c43)NC[C@@H](C)NC5=O)n2)cc(N2CCC(COC)CC2)n1 [Example I-240, (R)-3-(2-(4-(methoxymethyl)piperidin-1-yl)-6-vinylpyridin-4-yl)-10-methyl-9,10,11,12-tetrahydro-8H-[1,4]diazepino[5′,6′:4,5]thieno[3,2-f]quinolin-8-one]
0.098 | C[C@@H]1CNc2c(sc3ccc4nc(-c5nc(Cl)ncc5COC5CCOCC5)ccc4c23)C(=O)N1 [Example I-24, (R)-3-(2-chloro-5-(((tetrahydro-2H-pyran-4-yl)oxy)methyl)pyrimidin-4-yl)-10-methyl-9,10,11,12-tetrahydro-8H-[1,4]diazepino[5′,6′:4,5]thieno[3,2-f]quinolin-8-one]
0.007 | C=Cc1cc(-c2ccc3c(ccc4sc5c(c43)NC[C@@H](C)NC5=O)n2)cc(CN2C[C@@H](C)O[C@@H](C)C2)n1 [Example I-185, (R)-3-(2-(((2S,6R)-2,6-dimethylmorpholino)methyl)-6-vinylpyridin-4-yl)-10-methyl-9,10,11,12-tetrahydro-8H-[1,4]diazepino[5′,6′:4,5]thieno[3,2-f]quinolin-8-one]
0.101 | C=Cc1cnn(-c2ccc3c(ccc4sc5c(c43)NC[C@@H](C)NC5=O)n2)c1 [Example I-148, (R)-10-methyl-3-(4-vinyl-1H-pyrazol-1-yl)-9,10,11,12-tetrahydro-8H-[1,4]diazepino[5′,6′:4,5]thieno[3,2-f]quinolin-8-one]
0.027 | C=Cc1cc(-c2ccc3c(ccc4sc5c(c43)NC[C@@H](CF)NC5=O)n2)c(C)cn1 [Example I-254, (S)-10-(fluoromethyl)-3-(5-methyl-2-vinylpyridin-4-yl)-9,10,11,12-tetrahydro-8H-[1,4]diazepino[5′,6′:4,5]thieno[3,2-f]quinolin-8-one]
0.037 | C[C@@H]1CNc2c(sc3ccc4nc(-c5cc(/C=C/CN(C)C)ncn5)ccc4c23)C(=O)N1 [Example I-115, (R,E)-3-(6-(3-(dimethylamino)prop-1-en-1-yl)pyrimidin-4-yl)-10-methyl-9,10,11,12-tetrahydro-8H-[1,4]diazepino[5′,6′:4,5]thieno[3,2-f]quinolin-8-one]
0.137 | C[C@@H]1CNc2c(sc3ccc4nc(-c5cc(Cl)nc(N6CCN(C)CC6)n5)ccc4c23)C(=O)N1 [Example I-17, (R)-3-(6-chloro-2-(4-methylpiperazin-1-yl)pyrimidin-4-yl)-10-methyl-9,10,11,12-tetrahydro-8H-[1,4]diazepino[5′,6′:4,5]thieno[3,2-f]quinolin-8-one]
0.142 | C=Cc1nccc(-c2ccc3c(ccc4sc5c(c43)NC[C@@H](C)NC5=O)n2)c1C [Example I-219, (R)-10-methyl-3-(3-methyl-2-vinylpyridin-4-yl)-9,10,11,12-tetrahydro-8H-[1,4]diazepino[5′,6′:4,5]thieno[3,2-f]quinolin-8-one]
0.12 | C=Cc1ncc(C)c(-c2ccc3c(ccc4sc5c(c43)NC[C@@H](C)NC5=O)n2)n1 [Example I-33, (R)-10-methyl-3-(5-methyl-2-vinylpyrimidin-4-yl)-9,10,11,12-tetrahydro-8H-[1,4]diazepino[5′,6′:4,5]thieno[3,2-f]quinolin-8-one]

Molecule | IC50 [µM]
(R)-10-methyl-3-(6-(4-methylpiperazin-1-yl)-2-vinylpyrimidin-4-yl)-9,10,11,12-tetrahydro-8H-[1,4]diazepino[5′,6′:4,5]thieno[3,2-f]quinolin- [Example I-18] | 0.004
C[C@@H]1CNc2c(sc3ccc4nc(-c5nc(Cl)ncc5COC5(C)CCC5)ccc4c23)C(=O)N1 [Example I-27, (R)-3-(2-chloro-5-((1-methylcyclobutoxy)methyl)pyrimidin-4-yl)-10-methyl-9,10,11,12-tetrahydro-8H-[1,4]diazepino[5′,6′:4,5]thieno[3,2-f]quinolin-8-one] | 0.391
(R)-10-methyl-3-(6-(3-morpholinoprop-1-en-2-yl)pyrimidin-4-yl)-9,10,11,12-tetrahydro-8H-[1,4]diazepino[5′,6′:4,5]thieno[3,2-f]quinolin- [Example I-139] | 0.002

— patent US20240190890A1, “MK2 INHIBITORS AND USES THEREOF” (Bristol-Myers Squibb Company, priority 2022, published 2024)
